The results in this text go back to US9175077B2, “Nucleic acids encoding biologically active polypeptides derived from a novel early stage pregnancy factor designated maternin (MA)” (NOBEL BIOSCIENCES LLC, priority 1999, dated 2015).

“Also recorded” adds a separate entry of the source.

The subject of data set [1] is Lewis lung (LL) carcinoma cells. Put plainly: Pro-apoptotic effect on cultured Lewis lung carcinoma cells. The data set is classed as cell-based, mouse. As to conditions: same dose range as cultured human tumor cells. The method, then:
(§1) B16 melanoma and Lewis lung (LL) carcinoma cells were first shown to be susceptible to the pro-apoptotic effects of MA (FIG. 6, Panels C and D) at the same dose range used with cultured human tumor cells. The tumor cells grown in standard culture conditions were used to generate metastatic cancers in pathogen-free 6-8 week old C57/BL mice (Charles River). In one set of experiments, the animals were treated with MAS1 or MAS2 at two doses, 0.1 ug or 1.0 ug either in a pre-treatment protocol (two subcutaneous inoculations 24 and 48 hrs before transplanting the tumor cells).

Another data set concerns normal human cells. Put plainly: Effects on normal cells in vitro (confocal microscopy, trypan blue, MTT, 3H-thymidine). The data set is classed as cell-based. The method, then:
More extensive studies of the effects of MA and with truncated synthetic forms of MA (MAS) on a wide range of other human tumor cells were carried out using three-dimensional confocal microscopy. Cells were cultured and then seeded onto gelatinized glass chamber slides and incubated 24 hrs with the various test materials. The slides were then fixed with formalin and treated serially with Triton X-100 (0.01%) for 10 min at 25°, 0.4 ug/ml fluorescein isothiocyanate (FITC)-labeled Phalloidin (Sigma Chem. Co.) at room temperature for 30 min to bind actin, washed with PBS and the DNA stained with Propidium iodide (PI) (0.5 ug·ml) (Sigma Chemical Co.), for 15 min. The stained slides were washed and mounted on slow fade (Molecular Probes, Inc., Eugene, Oreg.) and examined through a dual emission filter XF53 (Omega, Inc., Brattlesboro, Va.) by fluorescent microscopy. In some experiments only DNA staining was performed. In these instances Triton X-100 was not used. The slides were stained with PI and examined for cell morphology and chromatin degradation under 3D confocal microscopy.
Untreated cells (first line) show normal morphology. The confocal microscopy results also verified the specificity of MA in killing tumor cells.
To be certain that this specificity for tumor cells was not simply the consequences of a difference between cycling and non-cycling cells, the following cell-types were also used: proliferating human normal fibroblasts, endothelial cells (HUVEC), and PHA-stimulated lymphocytes. […] In fact, MA actually promoted growth of some of these cells.
These cells included human, primate, and rodent bone marrow, PBMCs, and human CD4+ T-cells, CD8+ T-cells, CD34+ cells, and macrophages enriched from normal PBMCs, as well as normal human endothelial cells and fibroblasts. Cytotoxicity was assessed by 3H-thymidine incorporation, trypan blue staining, cell numbers, and morphological examination by light and confocal microscopy. Hematopoiesis was not only unimpaired it was promoted. […] These studies were chiefly performed with rats and mice, but also included rhesus macaques treated with 0.2 mg/kg for several months. Like the in vitro results, hematopoiesis was not impaired but instead enhanced.

In data set [2] the test system is human bone marrow stem cells. Put plainly: Engraftment of ex vivo expanded hematopoietic progenitor cells in BNX-XID mice. The source says: (§2) The inventors also investigated the effect of MA on engraftment of human bone marrow stem cells [CD34^+, CD38″ cells, long term cultures after 4 mos, and stromal free cultures] ex vivo expanded hematopoietic progenitor cells in Rats irradiated [Sprague DAwley, 450 Rad] and immunodeficient mice [SCID or BNX-XID mice].
(§3) Measurement of short-term hematopoietic reconstitution kinetics and long term repopulating ability. Just prior to implantation, SCID, BNX-XID-immunodeficient mice and Sprague Dawley rats were exposed to 450 rad total body γ-irradiation. […] But the SCID and BNX-XID immunodeficient mice were repopulated by the cultured, treated human cells.

Data set [3] in a line: Lethally irradiated rats and mice. Conditions: for survival: treated at time of radiation, 3×/week for 4 weeks.
In data set [4] the test system is human bone marrow stem cells. Put plainly: Engraftment of ex vivo expanded hematopoietic progenitor cells in SCID mice.
From the text: as §2, §3

The test system of data set [5] is spontaneous fibrosarcomas. Put plainly: Spontaneous fibrosarcomas in FVB/N mice. Type of data set: in vivo. As to conditions: treatment for 2 weeks. The source says:
As shown, MA killed a wide variety of human tumor cells in vitro and in vivo killed xenotransplanted human tumors in immune deficient mice. We wanted to be certain that the in vivo results would not be limited to immune deficient mice. […] Therefore, we tested the effects of MA on: • spontaneous fibrosarcomas which developed in three older FVB/N mice; and • spontaneous breast carcinomas which developed in three older Sprague-Dawley rats.
The tumors were recognized and treated after different stages of development. Samples of the tumor cells were grown in short-term culture and when treated with MA underwent rapid apoptosis.

For a further data set, the system named is B16 melanoma. Put plainly: Pro-apoptotic effect on cultured B16 melanoma cells. Type of data set: cell-based, mouse. As to conditions: same dose range as cultured human tumor cells. Here is the method:
as §1

Data set [6] relates to SIVMAC 251. Put plainly: SIVMAC 251 infected rhesus macaques. The data set is classed as in vivo. As to conditions: end-stage disease. The source says: Certain strains of SIV produce an AIDS-like illness in susceptible monkeys. Among them SIVMAC 251 induces disease in rhesus monkeys similar to AIDS in humans only with much greater rapidity.^174 Therapy with purified MA of 3 monkeys with end-stage disease infected 13-14 mos earlier was initiated when the animals were losing weight, highly viremic (plasma virus 0.5 to 3×10^6 copies of SIV RNA/ml by NASBA), and developing pancytopenia. […] In contrast, most untreated animals died by this period. Though the limitation of animal number precludes strong conclusions related to survival.
Far more impressive were experiments performed soon after infection (3 weeks). In these experiments, crude urinary preparations containing MA, but not crude fractions lacking MA, were inoculated subcutaneously. Using a 10^4.5 TCID50 of cell free SIVmac 251, the characteristic rise in SIV p27, reduction of CD4+ T-cells, and weight loss, which occurred in the untreated animals, was prevented in MA treated animals. The untreated animals died before 6 mos. […] However, stopping therapy led to rapid onset of virus production and development of AIDS-like disease.

Data set [7] concerns SIVMAC 251. Put plainly: SIV infection of rhesus macaque PBMCs (p27). Type of data set: cell-based. Here is the method:
One hour later the various polypeptides were added once.

“VVCNYRDVRFESIRLPGCPRGVNPVVSYAVALSCQ [MA]”: the “susceptibility to pro-apoptotic effects” value (in data set [1]; in the data set with B16 melanoma) was “susceptible” each time. Moreover, in the data set with normal human cells, the “inhibition of growth or apoptosis of proliferating normal fibroblasts, HUVEC, PHA-stimulated lymphocytes” value is “no inhibition of growth or evidence of apoptosis”. The “effect on morphology of primary human fibroblasts, cord blood CD34+ cells, CD4+ T cells, macrophages” value in the data set with normal human cells (2000 ng/ml) was “no effect”. In addition, the “cytopathogenicity / toxic side effects on normal cells in vitro” value in the data set on normal human cells (concentration ranges and time periods reported) is listed as “no toxic side effects; also recorded: no cytopathogenicity”. In the data set on normal human cells (up to 10× the effective concentrations), the “cytotoxicity on normal cells at higher concentrations” value is “no evident cytotoxic effects; also recorded: no evident cytotoxicity”. The CD4 is 3% in data set [2] and 2% in [4]. Besides, the results for the CD14 in data set [2] and in data set [4] were 1% and 2%, respectively. In addition, the CD34 is 37% in [2] and 38% in data set [4]. For the same sequence, the survival in data set [3] (higher dose, over 100 days) was 100%; in data set [3] (lowest doses) it was 80%. The gastrointestinal distress result in [3] (in vivo) is listed as “little or no gastrointestinal distress”. Moreover, the relative survival entry in [3] (pretreated, higher dose) is given as “survived longest”. Further, in data set [5], the tumor outcome was “complete abolishment of the tumor in two of three animals; also recorded: Partial regression was observed in one animal”. Moreover, in the data set with SIVMAC 251 [6], the “weight and T-cell number” value is “stabilization and in some instances even increase”. In the data set with SIVMAC 251 [6] (0.2 mg/kg 3 times weekly, 6 mos), the “change in SIV titer” value is “no significant change”. Besides, the “deaths in observation period” value in the data set on SIVMAC 251 [6] (6 mos) is “none of the 3 animals died”. Also, the “inhibition of SIVMAC 251 infection (qualitative)” value in the data set with SIVMAC 251 [7] is reported as “inhibited”.
